Experimental findings from patent US9828362B2, “1,4-disubstituted imidazole derivative” (Sumitomo Dainippon Pharma Co., Ltd., priority 2015, dated 2017) are described below.

For one assay, the system named is HCT-116 tumor. Description: Anti-tumor effect to HCT-116 tumor-bearing mouse. Format: in vivo. Particulars: nude mouse, oral, dosage 30 mg/kg, administration period 17 days, tumor volume. From the text: The present compound can be used to evaluate the anti-tumor effect thereof. A 4 to 7-week-old nude mouse (BALB/cAnNCrj-nu/nu, female, CHARLES RIVER LABORATORIES JAPAN, INC.) received intradermal transplantation of HCT-116 cells (ATCC) in an amount of 3×10^6 cells/mouse around the ventral portion. The engraftment of HCT-116 cells was observed 5 to 14 days after the transplantation, and then each compound suspended in a solvent such as 0.5% methylcellulose solution was orally administrated to the mouse in a dose of 1 to 100 mg/kg one to twice daily. The tumor volume was measured over time after the administration. to evaluate the effect for reducing the tumor volume by the administration of each compound. The tumor volume can be calculated from the minor axis and the major axis of the tumor measured with a digital caliper (Mitutoyo) according to the following formula: Tumor volume [mm^3]=0.5×minor axis [mm]×(major axis [ram])^2
The tumor volume is control administration group treated. with only a solvent such as 0.5% methylcellulose solution was compared with that of the present compound administration group, and T/C value was calculated according the following formula to evaluate the anti-tumor effect of the present compound. […]

Another assay concerns HCT-116 cells. As to the kind of experiment: Test for inhibiting sphere-forming ability of cancer cells (in the presence of BSA). Format: cell-based. To be noted: Homo sapiens, 96 h, Ultra-Low Attachment plate, medium with 5% bovine serum albumin (BSA), cultured 4 days, CellTiter-Glo, read-out: Sphere IC50 value (concentration for 50% inhibition of cell proliferation). How it is done: HCT-116 cells were available from the American Type Culture Collection (ATCC). HCT-116 cells were cultured at 37° C. and 5% CO2 using the McCoy's 5a medium containing 10% fetal bovine serum (FBS) and 1% penicillin/streptomycin. […] The test compounds were added into each well to adjust the final concentration of DMSO to 0.1%, and the cells were cultured for 4 days.
In general terms: Cellular ATP, detected with luciferase, serves as a proxy for viable cell number.

pIC50: −log10 of the molar value.

`Nc1cc(C(=O)Nc2cn(Cc3cc(F)c(F)c(F)c3)cn2)cnc1CO` [Example 46]: the “T/C (%)” value with HCT-116 tumor amounted to 91%.

As to `CC(C)(O)c1ccc(/C=C/C(=O)Nc2cn(Cc3cccc(C(F)(F)F)c3)cn2)cn1` [Example 53, (2E)-3-[6-(2-Hydroxypropan-2-yl)pyridin-3-yl]-N-{1-[3-(trifluoromethyl)benzyl]-1H-imidazol-4-yl}prop-2-enamide], the pIC50 with HCT-116 cells is under 5.00.
